From patent publication US20050158371A1, “Novel external agent” (Sumitomo Pharmaceuticals Co., Ltd., priority 2002, published 2005)

Test: Serum concentration of leflunomide after transdermal or oral administration to adjuvant arthritis rats, LC-MS/MS (Experimental Example 5B)
Format: in vivo
Conditions: rat, leflunomide in serum, single oral administration 20 mg/kg
Experimental: The dosage form for external application of leflunomide as shown in Example was administered once to adjuvant arthritis rats prepared in the same manner as in Experimental Example 1B and the concentration of leflunomide in serum was measured using LC-MS/MS. In addition, the concentration in serum on simultaneous oral administration of leflunomide once (20 mg/kg) was measured and compared.

Cc1oncc1C(=O)Nc1ccc(C(F)(F)F)cc1 [leflunomide, N-(4′-trifluoromethylphenyl)-5-methylisoxazole-4-carboxamide]
AUC(0-t) (read-out: AUC, area under the drug concentration-time curve [AUC(0−T)]): 0.6 µg·h/mL | Cmax (read-out: Cmax, maximum drug concentration): 0.502 µg/mL | Tmax (read-out: tmax, times to reach maximum drug concentration): 30 min
